{"source": "ChEMBL document CHEMBL1132959", "about": "“Design of potent dicyclic (1-5/4-10) gonadotropin releasing hormone (GnRH) antagonists” (J Med Chem, 2000)", "key": {"Rattus norvegicus [1]": {"species": "Rattus norvegicus", "test": "Antiovulatory potency at 50 ug/rat expressed as rats ovulating by total no. of rats (5/5)", "type": "functional"}, "Rattus norvegicus [2]": {"species": "Rattus norvegicus", "test": "Antiovulatory potency at 250 ug/rat expressed as rats ovulating by total no. of rats (5/6)", "type": "functional"}, "Rattus norvegicus [3]": {"species": "Rattus norvegicus", "test": "Antiovulatory potency at 50 ug/rat expressed as rats ovulating by total no. of rats (2/5)", "type": "functional"}, "Rattus norvegicus [4]": {"species": "Rattus norvegicus", "test": "Antiovulatory potency at 10 ug/rat expressed as rats ovulating by total no. of rats (3/3)", "type": "functional"}, "Rattus norvegicus [5]": {"species": "Rattus norvegicus", "test": "Antiovulatory potency at 25 ug/rat expressed as rats ovulating by total no. of rats (3/6)", "type": "functional"}, "Rattus norvegicus [6]": {"species": "Rattus norvegicus", "test": "Antiovulatory potency at 100 ug/rat expressed as rats ovulating by total no. of rats (0/3)", "type": "functional"}, "[7]": {"target": "T1, Gonadotropin-releasing hormone receptor (Rattus norvegicus, UniProt P30969)", "T1 sequence (P30969 whole entry)": "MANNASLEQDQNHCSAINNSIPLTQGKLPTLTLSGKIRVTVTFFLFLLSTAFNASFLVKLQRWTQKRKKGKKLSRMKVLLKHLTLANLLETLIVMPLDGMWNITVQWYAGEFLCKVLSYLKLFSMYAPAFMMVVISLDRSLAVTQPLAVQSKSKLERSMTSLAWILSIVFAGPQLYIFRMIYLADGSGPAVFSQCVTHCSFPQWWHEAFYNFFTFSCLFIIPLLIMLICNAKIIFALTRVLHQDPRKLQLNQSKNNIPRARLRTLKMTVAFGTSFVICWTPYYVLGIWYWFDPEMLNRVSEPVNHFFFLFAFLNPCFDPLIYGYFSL", "test": "Affinity for rat gonadotrophin releasing hormone (GnRH) receptor using HEK293 cells transfected with rat Gonadotropin-releasing hormone receptor", "type": "cell-based", "settings": "hek293"}, "Rattus norvegicus [8]": {"species": "Rattus norvegicus", "test": "Antiovulatory potency at 10 ug/rat expressed as rats ovulating by total no. of rats (1/6)", "type": "functional"}, "Rattus norvegicus [9]": {"species": "Rattus norvegicus", "test": "Antiovulatory potency at 25 ug/rat expressed as rats ovulating by total no. of rats (0/3)", "type": "functional"}, "Rattus norvegicus [10]": {"species": "Rattus norvegicus", "test": "Antiovulatory potency at 5 ug/rat expressed as rats ovulating by total no. of rats (2/8)", "type": "functional"}, "Rattus norvegicus [11]": {"species": "Rattus norvegicus", "test": "Antiovulatory potency at 10 ug/rat expressed as rats ovulating by total no. of rats (0/10)", "type": "functional"}, "Rattus norvegicus [12]": {"species": "Rattus norvegicus", "test": "Antiovulatory potency at 5 ug/rat expressed as rats ovulating by total no. of rats (3/20)", "type": "functional"}, "Rattus norvegicus [13]": {"species": "Rattus norvegicus", "test": "Antiovulatory potency at 2.5 ug/rat expressed as rats ovulating by total no. of rats (3/5)", "type": "functional"}, "Rattus norvegicus [14]": {"species": "Rattus norvegicus", "test": "Antiovulatory potency at 1 ug/rat expressed as rats ovulating by total no. of rats (4/4)", "type": "functional"}, "Rattus norvegicus [15]": {"species": "Rattus norvegicus", "test": "Antiovulatory potency at 5 ug/rat expressed as rats ovulating by total no. of rats (3/5)", "type": "functional"}, "Rattus norvegicus [16]": {"species": "Rattus norvegicus", "test": "Antiovulatory potency at 100 ug/rat expressed as rats ovulating by total no. of rats (7/12)", "type": "functional"}, "Rattus norvegicus [17]": {"species": "Rattus norvegicus", "test": "Antiovulatory potency at 250 ug/rat expressed as rats ovulating by total no. of rats (3/3)", "type": "functional"}, "Rattus norvegicus [18]": {"species": "Rattus norvegicus", "test": "Antiovulatory potency at 25 ug/rat expressed as rats ovulating by total no. of rats (7/8)", "type": "functional"}, "Rattus norvegicus [19]": {"species": "Rattus norvegicus", "test": "Antiovulatory potency at 50 ug/rat expressed as rats ovulating by total no. of rats (0/6)", "type": "functional"}, "Rattus norvegicus [20]": {"species": "Rattus norvegicus", "test": "Antiovulatory potency at 10 ug/rat expressed as rats ovulating by total no. of rats (5/6)", "type": "functional"}, "Rattus norvegicus [21]": {"species": "Rattus norvegicus", "test": "Antiovulatory potency at 5 ug/rat expressed as rats ovulating by total no. of rats (4/10)", "type": "functional"}}, "note": "Bridge positions count the residues as written; N and C are the ends. Square brackets hold non-standard residues; d marks the D form. Peptide text beside a SMILES is read from it. dPhe(4-F) = N[C@H](Cc1ccc(F)cc1)C(=O)O; d2Nal = N[C@H](Cc1ccc2ccccc2c1)C(=O)O; ΔPro = O=C(O)[C@@H]1C=CCN1; Dap = NC[C@H](N)C(=O)O"}
{"compound": "CC(=O)N[C@H](Cc1ccc2ccccc2c1)C(=O)N[C@H](Cc1ccc(Cl)cc1)C(=O)N[C@@H]1CSSC[C@@H](C(=O)N2CCC[C@H]2C(=O)N[C@H](C)C(N)=O)NC(=O)[C@H](CC(C)C)NC(=O)[C@@H](Cc2ccc3ccccc3c2)NC(=O)[C@H](CCCN=C(N)N)NC(=O)[C@H](C)NC1=O", "values": [{"measurement": "Ovulating rats", "setting": "Rattus norvegicus [1]", "value": 5}, {"measurement": "Ovulating rats", "setting": "Rattus norvegicus [2]", "value": 5}]}
{"compound": "CC(=O)N[C@@H]1CC(=O)NCC(=O)NCCC[C@H]2NC(=O)[C@@H](CC(=O)NC[C@H](C(N)=O)NC(=O)[C@H]3CCCN3C(=O)[C@H](CCCN=C(N)N)NC(=O)[C@@H](CC(C)C)NC(=O)[C@@H](Cc3ccc4ccccc4c3)NC2=O)NC(=O)[C@@H](Cc2c[nH]c3ccccc23)NC(=O)[C@H](Cc2ccc(Cl)cc2)NC1=O", "values": [{"measurement": "Ovulating rats", "setting": "Rattus norvegicus [3]", "value": 2}, {"measurement": "Ovulating rats", "setting": "Rattus norvegicus [4]", "value": 3}, {"measurement": "Ovulating rats", "setting": "Rattus norvegicus [5]", "value": 3}, {"measurement": "Ovulating rats", "setting": "Rattus norvegicus [6]", "value": 0}, {"measurement": "Ki", "setting": "[7]", "value": 0.31, "unit": "nM"}]}
{"compound": "CC(=O)N[C@H](Cc1ccc2ccccc2c1)C(=O)N[C@H](Cc1ccc(F)cc1)C(=O)N[C@H](Cc1cccnc1)C(=O)N[C@H]1CC(=O)NC[C@@H](C(N)=O)NC(=O)[C@@H]2CCCN2C(=O)[C@@H]2CCNC(=O)CNC(=O)CC[C@H](NC1=O)C(=O)N[C@H](CCCN=C(N)N)C(=O)N[C@@H](CC(C)C)C(=O)N2", "values": [{"measurement": "Ovulating rats", "setting": "Rattus norvegicus [8]", "value": 1}, {"measurement": "Ovulating rats", "setting": "Rattus norvegicus [9]", "value": 0}, {"measurement": "Ovulating rats", "setting": "Rattus norvegicus [10]", "value": 2}]}
{"compound": "CC(=O)N[C@H](Cc1ccc2ccccc2c1)C(=O)N[C@H](Cc1ccc(F)cc1)C(=O)N[C@H](Cc1c[nH]c2ccccc12)C(=O)N[C@H]1CC(=O)NC[C@@H](C(N)=O)NC(=O)[C@@H]2CCCN2C(=O)[C@@H]2CCCCNC(=O)CC[C@H](NC1=O)C(=O)N[C@H](CCCN=C(N)N)C(=O)N[C@@H](CC(C)C)C(=O)N2", "values": [{"measurement": "Ovulating rats", "setting": "Rattus norvegicus [11]", "value": 0}, {"measurement": "Ovulating rats", "setting": "Rattus norvegicus [12]", "value": 3}]}
{"compound": "CC(=O)N[C@@H]1CC(=O)NCC(=O)NCC[C@H]2NC(=O)[C@@H](CC(=O)NC[C@H](C(N)=O)NC(=O)[C@H]3CCCN3C(=O)[C@H](CCCN=C(N)N)NC(=O)[C@@H](CC(C)C)NC(=O)[C@@H](Cc3ccc4ccccc4c3)NC2=O)NC(=O)[C@@H](Cc2cccnc2)NC(=O)[C@H](Cc2ccc(Cl)cc2)NC1=O", "values": [{"measurement": "Ovulating rats", "setting": "Rattus norvegicus [13]", "value": 3}, {"measurement": "Ovulating rats", "setting": "Rattus norvegicus [14]", "value": 4}, {"measurement": "Ki", "setting": "[7]", "value": 0.12, "unit": "nM"}, {"measurement": "Ovulating rats", "setting": "Rattus norvegicus [15]", "value": 3}]}
{"compound": "CC(=O)N[C@@H]1CSSC[C@H]2NC(=O)[C@@H](CC(=O)NC[C@H](C(N)=O)NC(=O)[C@H]3CCCN3C(=O)[C@H](CCCN=C(N)N)NC(=O)[C@@H](CC(C)C)NC(=O)[C@H](Cc3ccc4ccccc4c3)NC2=O)NC(=O)[C@@H](Cc2c[nH]c3ccccc23)NC(=O)[C@H](Cc2ccc(Cl)cc2)NC1=O", "values": [{"measurement": "Ovulating rats", "setting": "Rattus norvegicus [16]", "value": 7}, {"measurement": "Ki", "setting": "[7]", "value": 5.7, "unit": "nM"}]}
{"compound": "CC(=O)N[C@@H]1CC(=O)NCC(=O)NCC[C@H]2NC(=O)[C@@H](CC(=O)NC[C@H](C(N)=O)NC(=O)[C@H]3CCCN3C(=O)[C@H](CCCN=C(N)N)NC(=O)[C@@H](CC(C)C)NC(=O)[C@@H](Cc3cccnc3)NC2=O)NC(=O)[C@@H](Cc2cccnc2)NC(=O)[C@H](Cc2ccc(Cl)cc2)NC1=O", "values": [{"measurement": "Ovulating rats", "setting": "Rattus norvegicus [17]", "value": 3}, {"measurement": "Ki", "setting": "[7]", "value": 1.6, "unit": "nM"}]}
{"compound": "CC(=O)N[C@@H]1CCC(=O)NCC(=O)NCCC[C@H]2NC(=O)[C@@H](CC(=O)NC[C@H](C(N)=O)NC(=O)[C@H]3CCCN3C(=O)[C@H](CCCN=C(N)N)NC(=O)[C@@H](CC(C)C)NC(=O)[C@@H](Cc3ccc4ccccc4c3)NC2=O)NC(=O)[C@@H](Cc2c[nH]c3ccccc23)NC(=O)[C@H](Cc2ccc(Cl)cc2)NC1=O", "values": [{"measurement": "Ovulating rats", "setting": "Rattus norvegicus [18]", "value": 7}, {"measurement": "Ovulating rats", "setting": "Rattus norvegicus [19]", "value": 0}, {"measurement": "Ki", "setting": "[7]", "value": 1.1, "unit": "nM"}, {"measurement": "Ovulating rats", "setting": "Rattus norvegicus [20]", "value": 5}]}
{"compound": "CC(=O)N1CC=C[C@H]1C(=O)N[C@H](Cc1ccc(F)cc1)C(=O)N[C@H](Cc1c[nH]c2ccccc12)C(=O)N[C@H]1CC(=O)NC[C@@H](C(N)=O)NC(=O)[C@@H]2CCCN2C(=O)[C@H](CCCN=C(N)N)NC(=O)[C@H](CC(C)C)NC(=O)[C@@H](Cc2ccc3ccccc3c2)NC(=O)[C@H](Cc2ccc(O)cc2)NC1=O", "note": "(Ac-[ΔPro][dPhe(4-F)][dW]DY[d2Nal]LRP[Dap]-NH2; lactam 4-10)", "values": [{"measurement": "Ovulating rats", "setting": "Rattus norvegicus [11]", "value": 0}, {"measurement": "Ovulating rats", "setting": "Rattus norvegicus [21]", "value": 4}]}
